From US6703540B1, “Transformation of plants with a chloroperoxidase gene to enhance disease resistance” (The United States of America as represented by the …, priority 2000, dated 2004)

Legend:
Aspergillus flavus [1] = assay: Comparative lethalities of oxidants to Aspergillus flavus; type: cell-based; details: mM concentrations of oxidants that produce 50% killing of Aspergillus flavus
endogenous peroxidase = assay: Endogenous peroxidase activity in leaf extracts assayed with guaiacol; type: biochemical, Nicotiana tabacum; details: guaiacol assay
Text: The validity of the assay procedure for CPO-P activity in transgenic tobacco was established in the following manner.

Aspergillus flavus [2] = details: H2O2 converted to hypochlorite by myeloperoxidase, in vitro; cited from earlier work

Q: With OCl [HOCl, hypochlorous acid] as the molecule, how does the LD50 (Aspergillus flavus [1]) read?
A: 0.30 mM

Q: With CC(=O)OO [HOOAc, peracetic acid] as the molecule, how does the LD50 (Aspergillus flavus [1]) read?
A: 0.15 mM

Q: With [N-]=[N+]=[N-].[Na+] [NaN3] as the molecule, how does the “inhibition of endogenous peroxidase activity in leaf extracts (in words)” value (endogenous peroxidase) read?
A: completely inhibited

Q: With OO [Plant H2O2, hydrogen peroxide] as the molecule, how does the LD50 (Aspergillus flavus [1]) read?
A: 18.00 mM

B1: myeloperoxidase: animal haloperoxidase converting hydrogen peroxide to hypochlorous acid (protein, UniProt P05164 165-745, looked up)
Myeloperoxidase: VTCPEQDKYRTITGMCNNRRSPTLGASNRAFVRWLPAEYEDGFSLPYGWTPGVKRNGFPVALARAVSNEIVRFPTDQLTPDQERSLMFMQWGQLLDHDLDFTPEPAARASFVTGVNCETSCVQQPPCFPLKIPPNDPRIKNQADCIPFFRSCPACPGSNITIRNQINALTSFVDASMVYGSEEPLARNLRNMSNQLGLLAVNQRFQDNGRALLPFDNLHDDPCLLTNRSARIPCFLAGDTRSSEMPELTSMHTLLLREHNRLATELKSLNPRWDGERLYQEARKIVGAMVQIITYRDYLPLVLGPTAMRKYLPTYRSYNDSVDPRIANVFTNAFRYGHTLIQPFMFRLDNRYQPMEPNPRVPLSRVFFASWRVVLEGGIDPILRGLMATPAKLNRQNQIAVDEIRERLFEQVMRIGLDLPALNMQRSRDHGLPGYNAWRRFCGLPQPETVGQLGTVLRNLKLARKLMEQYGTPNNIDIWMGGVSEPLKRKGRVGPLLACIIGTQFRKLRDGDRFWWENEGVFSMQQRQALAQISLPRIICDNTGITTVSKNNIFMSNSYPRDFVNCSTLPALNLASWREAS
Q: With B1 as the molecule, how does the “increase in lethality against Aspergillus flavus” value (Aspergillus flavus [2]) read?
A: ≤ 90 fold
